Source: PMC6442119, “The antitumor activity of CYB-L10, a human topoisomerase IB catalytic inhibitor” (Journal of Enzyme Inhibition and Medicinal Chemistry, 2019)

Experiments:
HCT116 xenograft = assay: In vivo antitumor activity, HCT116 xenograft; design: species or system nude mice; conditions: for tumor weight inhibition (TWI): HCT116 xenograft nude mice
Procedure: Athymic nude mice bearing the nu/nu gene were obtained from Laboratory Animal Center of Sun Yat-sen University and maintained in pathogen-free conditions to establish the model of xenografts of HCT116. All animals were used under the Policy on the Care and Use of Laboratory Animal of Sun Yat-sen University. Male nude mice 4–5 weeks old weighing 12–15 g were used. HCT116 tumor preinduced in the mice by subcutaneously injecting of HCT116 cells (100 µL, 1 × 10^7 cells) was implanted. When the implanted tumors had reached a volume of about 80 mm^3, the mice were randomly divided into three groups (n = 5) and administered by i.p. injection at a frequency of once every 3 days. The testing groups were treated with CYB-L10 at 20 mg/kg and 6.7 mg/kg dose, respectively. The control group was treated with an equivalent volume of saline. Tumor volumes (V) were monitored by caliper measurement of the length and width, and calculated using the formula: V = (larger diameter) × (smaller diameter)^2/2, and growth curves were plotted using average tumor volume within each experimental group at the set time points. At the end of treatment, the animals were sacrificed, and the tumors were removed and weighed. The tumor weight inhibition (TWI) was calculated according to the formula: TWI = (1 − Mean tumor weight of the experimental group/Mean tumor weight of the control group) × 100%. Statistical comparisons were conducted using a one-way analysis of variance, followed by Tukey’s test.
A human colon cancer HCT116 xenograft nude mice model was established to evaluate the antitumor efficiency of CYB-L10 in vivo. Mice were randomly divided into three groups and administered i.p. injection at a frequency of once every 3 days. Two groups were treated with CYB-L10 at 20 mg/kg and 6.7 mg/kg dose, respectively. The negative control group was treated with an equivalent volume of saline.

HL-60 (TB) = assay: NCI60 assay; assay type: cell-based; conditions: Homo sapiens, Leukemia, 48 h
Procedure: The NCI60 (National Cancer Institute 60) tumor cell drug discovery panel was developed as a tool to assess the anticancer activity of compounds against a range of cell lines derived from nine cancer cell types, including hematological malignancies, lung, central nervous system, melanoma, colorectal, renal, breast, ovarian, and prostate[18]^,[23]^,[24]. CYB-L10 was tested using the protocols by the NCI, which has been described previously. […] The overall antiproliferative potential is quantified as a mean-graph midpoint (MGM).
It was selected and submitted to National Cancer Institute (NCI, USA) for a developmental therapeutics assay against the 60 clinical tumor cell lines representing nine tissue types (NCI60)[23–25]. The tumor cells were incubated with CYB-L10 for 48 h and stained with sulphorhodamine B dye. Cell growth inhibition (GI50) was calculated relative to the control without compound.

RXF 393 = assay: NCI60 assay; assay type: cell-based; conditions: Homo sapiens; Renal cancer, RXF 393, 48 h
Procedure: (§1) CYB-L10 was tested using the protocols by the NCI, which has been described previously. […] The overall antiproliferative potential is quantified as a mean-graph midpoint (MGM). […] It was selected and submitted to National Cancer Institute (NCI, USA) for a developmental therapeutics assay against the 60 clinical tumor cell lines representing nine tissue types (NCI60)[23–25]. The tumor cells were incubated with CYB-L10 for 48 h and stained with sulphorhodamine B dye. Cell growth inhibition (GI50) was calculated relative to the control without compound.

SK-MEL-5 = assay: NCI60 assay; assay type: cell-based; conditions: Homo sapiens; Melanoma, SK-MEL-5, 48 h
Procedure: as §1

UO-31 = assay: NCI60 assay; assay type: cell-based; conditions: Homo sapiens; Renal cancer, UO-31, 48 h
Procedure: as §1

UACC-257 = assay: NCI60 assay; assay type: cell-based; conditions: Homo sapiens; Melanoma, UACC-257, 48 h
Procedure: as §1

K-562 = assay: NCI60 assay; assay type: cell-based; conditions: Homo sapiens, K562; Leukemia, K-562, 48 h
Procedure: as §1

NCI/ADR-RES = assay: NCI60 assay; assay type: cell-based; conditions: Homo sapiens, Ovarian cancer, 48 h
Procedure: as §1

SF-539 = assay: NCI60 assay; assay type: cell-based; conditions: Homo sapiens; CNS cancer, SF-539, 48 h
Procedure: as §1

IGROV1 = assay: NCI60 assay; assay type: cell-based; conditions: Homo sapiens, IGROV-1; Ovarian cancer, IGROV1, 48 h
Procedure: as §1

HS 578T = assay: NCI60 assay; assay type: cell-based; conditions: Homo sapiens, Breast cancer, 48 h
Procedure: as §1

SK-MEL-28 = assay: NCI60 assay; assay type: cell-based; conditions: Homo sapiens; Melanoma, SK-MEL-28, 48 h
Procedure: as §1

SK-MEL-2 = assay: NCI60 assay; assay type: cell-based; conditions: Homo sapiens; Melanoma, SK-MEL-2, 48 h
Procedure: as §1

A549/ATCC = assay: NCI60 assay; assay type: cell-based; conditions: Homo sapiens, Non-small cell lung cancer, 48 h
Procedure: as §1

MALME-3M = assay: NCI60 assay; assay type: cell-based; conditions: Homo sapiens, Melanoma, 48 h
Procedure: as §1

OVCAR-5 = assay: NCI60 assay; assay type: cell-based; conditions: Homo sapiens; Ovarian cancer, OVCAR-5, 48 h
Procedure: as §1

HCT116 = assay: NCI60 assay; assay type: cell-based; conditions: Homo sapiens, HCT-116, Colon cancer, HCT116, 48 h
Procedure: as §1

EKVX = assay: NCI60 assay; assay type: cell-based; conditions: Homo sapiens, Non-small cell lung cancer, 48 h
Procedure: as §1

ACHN = assay: NCI60 assay; assay type: cell-based; conditions: Homo sapiens, Renal cancer, 48 h
Procedure: as §1

RPMI-8226 = assay: NCI60 assay; assay type: cell-based; conditions: Homo sapiens; Leukemia, RPMI-8226, 48 h
Procedure: as §1

NCI-H23 = assay: NCI60 assay; assay type: cell-based; conditions: Homo sapiens; Non-small cell lung cancer, NCI-H23, 48 h
Procedure: as §1

786-0 = assay: NCI60 assay; assay type: cell-based; conditions: Homo sapiens; Renal cancer, 786-0, 48 h
Procedure: as §1

KM12 = assay: NCI60 assay; assay type: cell-based; conditions: Homo sapiens; Colon cancer, KM12, 48 h
Procedure: as §1

MDA-MB-468 = assay: NCI60 assay; assay type: cell-based; conditions: Homo sapiens; Breast cancer, MDA-MB-468, 48 h
Procedure: as §1

O=C1c2cccnc2C(=O)c2c1c(C(=O)OCCN1CCOCC1)c1ccccn21 [CYB-L10]
tumor weight inhibition (TWI) (HCT116 xenograft; 6.7 mg/kg i.p. once every 3 days): 27.6% | tumor weight inhibition (TWI) (HCT116 xenograft; 20 mg/kg i.p. once every 3 days, p < 0.05): 38.3% | body weight of the mice (HCT116 xenograft; 20 and 6.7 mg/kg i.p., vs negative control): no obvious loss | tumor volume (HCT116 xenograft; 20 and 6.7 mg/kg i.p., vs negative control, dose-dependent): obviously reduced the tumor volume | GI50 (HL-60 (TB)): 240 nM | GI50 (RXF 393): 35.1 nM | GI50 (SK-MEL-5): 28.5 nM | GI50 (UO-31): 13 nM | GI50 (UACC-257): 54.6 nM | GI50 (K-562): 28.2 nM | GI50 (NCI/ADR-RES): 36.8 nM | GI50 (SF-539): < 10 nM | GI50 (IGROV1): 46.2 nM | GI50 (HS 578T): 36.9 nM | GI50 (SK-MEL-28): 54.6 nM | GI50 (SK-MEL-2): 46.2 nM | GI50 (A549/ATCC): 20.5 nM | GI50 (MALME-3M): 45 nM | GI50 (OVCAR-5): 648 nM | GI50 (HCT116): 41.7 nM | GI50 (EKVX): 1360 nM | GI50 (ACHN): < 10 nM | GI50 (RPMI-8226): 166 nM | GI50 (NCI-H23): < 10 nM | GI50 (786-0): 29 nM | GI50 (KM12): 168 nM | GI50 (MDA-MB-468): 1820 nM
